Results published in patent US20050197338A1, “Substituted pyrazole urea compounds for the treatment of inflammation” (priority 2003, published 2005).
Where a name gives a salt, the structure may show the parent alone.

These compounds were tested against T1, human IKK-2 (rhIKK-2 homodimer) (Homo sapiens, UniProt O14920) (assay: IKK-2 Resin Enzyme Assay (Human IKK-2 Enzyme Assay)). Conditions: human IKK-2, resin enzyme assay; read-out: IC50 (μM) hIKK-2.
T1 construct: FLAG (DYKDDDDKD) (C); made in house; host or cells: insect cells (baculovirus, pFastBac)
T1 sequence (O14920 1-756): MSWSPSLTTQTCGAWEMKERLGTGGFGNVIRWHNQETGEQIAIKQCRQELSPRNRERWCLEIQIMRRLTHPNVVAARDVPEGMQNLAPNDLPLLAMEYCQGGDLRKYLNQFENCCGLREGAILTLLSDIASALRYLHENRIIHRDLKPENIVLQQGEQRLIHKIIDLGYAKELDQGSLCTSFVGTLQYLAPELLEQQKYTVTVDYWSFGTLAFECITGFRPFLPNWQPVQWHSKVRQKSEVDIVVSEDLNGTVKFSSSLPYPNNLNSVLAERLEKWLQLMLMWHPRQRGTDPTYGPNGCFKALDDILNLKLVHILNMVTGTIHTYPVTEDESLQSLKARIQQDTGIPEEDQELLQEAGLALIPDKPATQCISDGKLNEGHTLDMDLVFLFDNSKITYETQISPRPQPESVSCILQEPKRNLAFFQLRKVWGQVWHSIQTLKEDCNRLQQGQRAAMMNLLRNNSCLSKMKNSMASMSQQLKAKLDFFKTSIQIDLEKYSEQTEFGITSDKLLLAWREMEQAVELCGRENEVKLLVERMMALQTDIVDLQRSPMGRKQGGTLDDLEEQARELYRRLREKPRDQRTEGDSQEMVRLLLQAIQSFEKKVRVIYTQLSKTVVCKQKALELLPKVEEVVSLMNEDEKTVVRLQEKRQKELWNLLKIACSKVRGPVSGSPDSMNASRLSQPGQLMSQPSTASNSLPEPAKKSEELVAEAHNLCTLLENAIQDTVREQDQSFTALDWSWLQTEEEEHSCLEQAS
Format: biochemical
Text: Materials: SAM^2™96 Biotin capture plates were from Promega. Anti-FLAG affinity resin, FLAG-peptide, NP-40 (Nonidet P-40), BSA, ATP, ADP, AMP, LPS (E. coli serotype 0111:B4), and dithiothreitol were obtained from Sigma Chemicals. Antibodies specific for NEMO (IKK-γ) (FL-419), IKK-1 (H-744), IKK-2(H-470) and IκBa(C-21) were purchased from Santa Cruz Biotechnology. Ni-NTA resin was purchased from Qiagen. Peptides were purchased from American Peptide Company. Protease inhibitor cocktail tablets were from Boehringer Mannheim. Sephacryl S-300 column was from Pharmacia LKB Biotechnology. Centriprep-10 concentrators with a molecular weight cutoff of 10 kDa and membranes with molecular weight cut-off of 30 kDa were obtained from Amicon. [γ-^33P] ATP (2500 Ci/mmol) and [γ-^32P] ATP (6000 Ci/mmol) were purchased from Amersham. The other reagents used were of the highest grade commercially available.
Cloning and Expression: cDNAs of human IKK-1 and IKK-2 were amplified by reverse transcriptase-polymerase chain reaction from human placental RNA (Clonetech). hlKK-1 was subcloned into pFastBac HTa (Life Technologies) and expressed as N-terminal His6-tagged fusion protein. The hlKK-2 cDNA was amplified using a reverse oligonucleotide primer which incorporated the peptide sequence for a FLAG-epitope tag at the C-terminus of the IKK-2 coding region (DYKDDDDKD). The hlKK-2:FLAG cDNA was subcloned into the baculovirus vector pFastBac. The rhIKK-2 ([…]) mutant was constructed in the same vector used for wild type rhIKK-2 using a QuikChange™ mutagenesis kit (Stratagene). Viral stocks of each construct were used to infect insect cells grown in 40 L suspension culture. […] Cell lysates were stored at −80° C. until purification of the recombinant proteins was undertaken as described below.
Enzyme Isolation: All purification procedures were carried out at 4° C. unless otherwise noted. Buffers used are: buffer A: 20 mM Tris-HCl, pH 7.6, containing 50 mM NaCl, 20 mM NaF, 20 mM β-Glycerophosphate, 500 μM sodium orthovanadate, 2.5 mM metabisulfite, 5 mM benzamidine, 1 mM EDTA, 0.5 mM EGTA, 10% glycerol, 1 mM DTT, 1× Complete™ protease inhibitors; buffer B: same as buffer A, except 150 mM NaCl, and buffer C: same as buffer A, except 500 mM NaCl.
Isolation of rhIKK-2 homodimer: A 10-liter culture of baculovirus-expressing IKK-2 tagged with FLAG peptide was centrifuged and the cell pellet (MOI=0.1 and 1=72 h) was re-suspended in buffer A. These cells were microfluidized, and centrifuged at 100,000×g for 45 min. Supernatant was passed over a G-25 column equilibrated with Buffer A. Protein peak was collected and incubated with anti-FLAG affinity resin on a rotator overnight in buffer B. The resin was washed in batch with 10-15 bed volumes of buffer C. Washed resin was poured into a column and rhIKK-2 homodimer was eluted using 5 bed volumes of buffer B containing FLAG peptide. 5 mM DTT, 0.1% NP-40 and BSA (concentrated to 0.1% in final amount) was added to the eluted enzyme before concentrating in using an Amicon membrane with a molecular weight cut-off of 30 kDa. Enzyme was aliquoted and stored at −80° C.
IKK-2 Resin Enzyme Assay: IKK-2 kinase activity was measured using a biotinylated IκBα peptide (Gly-Leu-Lys-Lys-Glu-Arg-Leu-Leu-Asp-Asp-Arg-His-Asp-Ser32-Gly-Leu-Asp-Ser36-Met-Lys-Asp-Glu-Glu) (American Peptide Co.). 20 μL of the standard reaction mixture contained 5 μM biotinylated IκBα peptide, 0.1 μCi/reaction [γ-^33P] ATP (Amersham) (about 1×10^5 cpm), 1 μM ATP (Sigma), 1 mM DTT (Sigma), 2 mM MgCl2 (Sigma), 2 mM MnCl2 (Sigma), 10 mM NaF (Sigma), 25 mM Hepes (Sigma) buffer, pH 7.6 and 20 μL enzyme solution and 10 μL inhibitor in a final volume of 50 μL. After incubation at 25° C. for 30 min, 150 μL resin (Dowex anion-exchange resin AG1X8 200-400 mesh) in 900 mM formate, pH 3.0 was added to each well to stop the reaction. Resin was allowed to settle for 1 h and 50 μL of supernatant was removed to a Micolite-2 flat bottom plate (Dynex). […]

SMILES	IC50 [µM]
NC(=O)NC(=O)Nc1cn(-c2ccc(Br)c(C(F)(F)F)c2)nc1C(N)=O [Example 2, 4-({[(aminocarbonyl)amino]carbonyl}amino)-1-[4-bromo-3-(trifluoromethyl)phenyl]-1H-pyrazole-3-carboxamide]	10.7
COc1ccc(-n2cc(NC(N)=O)c(C(N)=O)n2)cc1 [Example 10, 4-[(aminocarbonyl)amino]-1-(4-methoxyphenyl)-1H-pyrazole-3-carboxamide trifluoroacetate]	2.91
COc1ccc(Cc2cccc(-n3cc(NC(N)=O)c(C(N)=O)n3)c2)cc1OC [Example 11, 4-[(aminocarbonyl)amino]-1-[3-(3,4-dimethoxybenzyl)phenyl]-1H-pyrazole-3-carboxamide]	6.36
NC(=O)c1nn(-c2cccc(Br)c2)cc1NC(N)=S [Example 12, 4-[(aminocarbonothioyl)amino]-1-(3-bromophenyl)-1H-pyrazole-3-carboxamide]	1.43
COc1cc(-c2cccc(-n3cc(NC(N)=O)c(C(N)=O)n3)c2)c(Cl)cn1 [Example 14, trifluoroacetate]	8.95
CNC(=O)Nc1cn(-c2ccc(I)cc2)nc1C(N)=O [Example 17, 1-(4-iodophenyl)-4-{[(methylamino)carbonyl]amino}-1H-pyrazole-3-carboxamide]	1.72
NC(=O)Nc1cn(-c2ccc(-c3cccnc3)cc2)nc1C(N)=O [Example 21, 4-[(aminocarbonyl)amino]-1-(4-pyridin-3-ylphenyl)-1H-pyrazole-3-carboxamide]	2.86
NC(=O)Nc1cn(-c2ccc(-c3ccccc3O)cc2)nc1C(N)=O [Example 23, 4-[(aminocarbonyl)amino]-1-(2′-hydroxy-1,1′-biphenyl-4-yl)-1H-pyrazole-3-carboxamide]	1.64
NC(=O)Nc1cn(-c2ccc(-c3cccc(OC(F)(F)F)c3)cc2)nc1C(N)=O [Example 24, 4-[(aminocarbonyl)amino]-1-[3′-(trifluoromethoxy)-1,1′-biphenyl-4-yl]-1H-pyrazole-3-carboxamide]	7.73
NC(=O)Nc1cn(-c2ccc(-c3ccc(F)cc3)cc2)nc1C(N)=O [Example 25, 4-[(aminocarbonyl)amino]-1-(4′-fluoro-1,1′-biphenyl-4-yl)-1H-pyrazole-3-carboxamide]	1.55
NCc1cccc(-c2ccc(-n3cc(NC(N)=O)c(C(N)=O)n3)cc2)c1 [Example 28, 4-[(aminocarbonyl)amino]-1-[3′-(aminomethyl)-1,1′-biphenyl-4-yl]-1H-pyrazole-3-carboxamide]	2.79
NC(=O)Nc1cn(-c2ccc(-c3ccccc3F)cc2)nc1C(N)=O [Example 30, 4-[(aminocarbonyl)amino]-1-(2′-fluoro-1,1′-biphenyl-4-yl)-1H-pyrazole-3-carboxamide]	3
CC(C)(C)NC(=O)c1cccc(-c2ccc(-n3cc(NC(N)=O)c(C(N)=O)n3)cc2)c1 [Example 31, 4-[(aminocarbonyl)amino]-1-{3′-[(tert-butylamino)carbonyl]-1,1′-biphenyl-4-yl}-1H-pyrazole-3-carboxamide]	4.79

Continued by falling IC50, values first:

IC50 [µM]	SMILES
1.43	NC(=O)Nc1cn(-c2ccc(C(=O)N3CCOCC3)cc2)nc1C(N)=O [Example 9, 4-[(aminocarbonyl)amino]-1-[4-(morpholin-4-yl-carbonyl)phenyl]-1H-pyrazole-3-carboxamide]
1.36	N#CCc1cccc(-c2ccc(-n3cc(NC(N)=O)c(C(N)=O)n3)cc2)c1 [Example 27, 4-[(aminocarbonyl)amino]-1-[3′-(cyanomethyl)-1,1′-biphenyl-4-yl]-1H-pyrazole-3-carboxamide]
1.2	NC(=O)Nc1cn(-c2ccc(-c3cccc(O)c3)cc2)nc1C(N)=O [Example 22, 4-[(aminocarbonyl)amino]-1-(3′-hydroxy-1,1′-biphenyl-4-yl)-1H-pyrazole-3-carboxamide]
1.16	N#C/C=C/c1cccc(-c2ccc(-n3cc(NC(N)=O)c(C(N)=O)n3)cc2)c1 [Example 32, 4-[(aminocarbonyl)amino]-1-{3′-[(E)-2-cyanovinyl]-1,1′-biphenyl-4-yl}-1H-pyrazole-3-carboxamide]
0.89	NC(=O)Nc1cn(-c2ccc(-c3ccc(C(=O)Nc4ccccn4)cc3)cc2)nc1C(N)=O [Example 33, 4-[(aminocarbonyl)amino]-1-{4′-[(pyridin-2-ylamino)carbonyl]-1,1′-biphenyl-4-yl}-1H-pyrazole-3-carboxamide]
0.61	NC(=O)Nc1cn(-c2cccc(Br)c2)nc1C(N)=O [Example 20, 4-[(aminocarbonyl)amino]-1-(3-bromophenyl)-1H-pyrazole-3-carboxamide]
0.59	NC(=O)Nc1cn(-c2ccc(-c3ccc[nH]3)cc2)nc1C(N)=O [Example 26, 4-[(aminocarbonyl)amino]-1-[4-(1H-pyrrol-2-yl)phenyl]-1H-pyrazole-3-carboxamide]
0.546	NC(=O)Nc1cn(-c2ccc(I)c(Cl)c2)nc1C(N)=O [Example 6, 4-[(aminocarbonyl)amino]-1-(3-chloro-4-iodophenyl)-1H-pyrazole-3-carboxamide]
0.53	COC(=O)c1ccc(-c2ccc(-n3cc(NC(N)=O)c(C(N)=O)n3)cc2)c(N)c1 [Example 29, methyl 2-amino-4′-{3-(aminocarbonyl)-4-[(aminocarbonyl)amino]-1H-pyrazol-1-yl}-1,1′-biphenyl-4-carboxylate]
0.38	NC(=O)Nc1cn(-c2cccc(-c3ccnc(Cl)c3)c2)nc1C(N)=O [Example 13, 4-[(aminocarbonyl)amino]-1-[3-(2-chloropyridin-4-yl)phenyl]-1H-pyrazole-3-carboxamide]
0.3	Cc1ccc(-n2cc(NC(N)=O)c(C(N)=O)n2)cc1 [Example 18, 4-[(aminocarbonyl)amino]-1-(4-methylphenyl)-1H-pyrazole-3-carboxamide]
